# PubChem BioAssay (NCI)
#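 These data come from cells grown in 96-well plates and exposed to compound for 48 hours at five concentrations. At the GI50, growth is halved. TGI: total growth inhibition.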
# Tests used:
# Assay in all cases: growth of human tumour cells (NCI), 48 h
# HT29 colon = system: HT29 colon
# HCT-15 colon = system: HCT-15 colon
# OVCAR-8 ovarian = system: OVCAR-8 ovarian
# KM12 colon = system: KM12 colon
# MALME-3M melanoma = system: MALME-3M melanoma
# HCC-2998 colon = system: HCC-2998 colon
# NCI-H522 lung = system: NCI-H522 lung
# A498 renal = system: A498 renal
# HL-60(TB) leukemia = system: HL-60(TB) leukemia
# UACC-257 melanoma = system: UACC-257 melanoma
# MDA-MB-468 breast = system: MDA-MB-468 breast
# UACC-62 melanoma = system: UACC-62 melanoma
# OVCAR-5 ovarian = system: OVCAR-5 ovarian
# OVCAR-3 ovarian = system: OVCAR-3 ovarian
# HOP-62 NSCLC = system: HOP-62 NSCLC
# ACHN renal = system: ACHN renal
# RPMI-8226 leukemia = system: RPMI-8226 leukemia
# K-562 leukemia = system: K-562 leukemia
# RXF 393 renal = system: RXF 393 renal
# BT-549 breast = system: BT-549 breast
# NCI-H226 lung = system: NCI-H226 lung
# M14 melanoma = system: M14 melanoma
# TK-10 renal = system: TK-10 renal
# MCF7 breast = system: MCF7 breast
# DU-145 prostate = system: DU-145 prostate
# CAKI-1 renal = system: CAKI-1 renal
# SF-539 CNS = system: SF-539 CNS
# SK-MEL-28 melanoma = system: SK-MEL-28 melanoma
# 786-0 renal = system: 786-0 renal
smiles,measurement,setting,value
CN(C)CCn1c2ccccc2c2nc3cc4ccccc4cc3nc21,GI50,HT29 colon,1.41 µM
same,TGI,HT29 colon,3.8 µM
same,GI50,HCT-15 colon,1.06 µM
same,TGI,HCT-15 colon,2.47 µM
same,GI50,OVCAR-8 ovarian,1.47 µM
same,TGI,OVCAR-8 ovarian,3.54 µM
same,GI50,KM12 colon,2.8 µM
same,TGI,KM12 colon,15.2 µM
same,GI50,MALME-3M melanoma,2.41 µM
same,TGI,MALME-3M melanoma,8.72 µM
same,GI50,HCC-2998 colon,1.29 µM
same,TGI,HCC-2998 colon,2.66 µM
same,GI50,NCI-H522 lung,2.5 µM
same,TGI,NCI-H522 lung,14.5 µM
same,GI50,A498 renal,14.7 µM
same,TGI,A498 renal,32 µM
same,GI50,HL-60(TB) leukemia,1.07 µM
same,TGI,HL-60(TB) leukemia,2.85 µM
same,GI50,UACC-257 melanoma,4.37 µM
same,TGI,UACC-257 melanoma,16.6 µM
same,GI50,MDA-MB-468 breast,1.26 µM
same,TGI,MDA-MB-468 breast,6.36 µM
same,GI50,UACC-62 melanoma,5.13 µM
same,TGI,UACC-62 melanoma,18.8 µM
same,GI50,OVCAR-5 ovarian,3.73 µM
same,TGI,OVCAR-5 ovarian,16.8 µM
same,GI50,OVCAR-3 ovarian,4.53 µM
same,TGI,OVCAR-3 ovarian,17.2 µM
same,TGI,HOP-62 NSCLC,16.4 µM
same,GI50,ACHN renal,1.59 µM
same,TGI,ACHN renal,11.5 µM
same,TGI,RPMI-8226 leukemia,13 µM
same,GI50,K-562 leukemia,1.79 µM
same,TGI,K-562 leukemia,5.45 µM
same,GI50,RXF 393 renal,2.23 µM
same,TGI,RXF 393 renal,10.2 µM
same,GI50,BT-549 breast,4.92 µM
same,TGI,BT-549 breast,18.5 µM
same,GI50,NCI-H226 lung,1.89 µM
same,TGI,NCI-H226 lung,6.59 µM
same,GI50,M14 melanoma,2.48 µM
same,TGI,M14 melanoma,11.1 µM
same,TGI,TK-10 renal,22.4 µM
same,GI50,MCF7 breast,1.29 µM
same,TGI,MCF7 breast,13.1 µM
same,GI50,DU-145 prostate,2.65 µM
same,TGI,DU-145 prostate,13.2 µM
same,GI50,CAKI-1 renal,1.28 µM
same,TGI,CAKI-1 renal,12.3 µM
same,GI50,SF-539 CNS,3.01 µM
same,TGI,SF-539 CNS,12.8 µM
same,GI50,SK-MEL-28 melanoma,5.72 µM
same,TGI,SK-MEL-28 melanoma,18.3 µM
same,GI50,786-0 renal,3.95 µM
same,TGI,786-0 renal,16.5 µM
